# In patent publication US8912202B2, “N-(benzimimdazol-2-yl)-cyclopropane carboxamides as lysophosphatidic acid antagonists” (Merck Patent GmbH, priority 2011, dated 2014):
# Molecular target: T1, LPA2R (Homo sapiens, UniProt Q9HBW0)
# T1 construct: expressed in transfected cells; host or cells: U2OS
# Experiment: LPA2R-Calciumflux assay (FLIPR, intracellular calcium mobilisation after LPA)
# Type: cell-based
# Conditions: U2OS cells recombinant expressing LPA2R; antagonism of LPA-induced calcium flux; racemate of the two trans enantiomers unless marked enantiomer
# Text: The assay detects intra cellular calcium which is generated by cells upon activation of the LPA2 receptor by its ligand LPA. This transient calcium mobilization can be monitored using a commercial calcium detection kit (e.g. from Molecular Devices). The main component of such a kit is a dye, which becomes fluorescent when calcium is present—a transient fluorescence signal after addition of a ligand to a test well are the result. Readers like the FLIPR (Molecular Devices) can be used to monitor such transient “Ca-flux” signals.
# The signals are calculated according to peak maximum minus base line.
# Compounds which are antagonists of LPA lead to a decreased mobilisation of intracellular calcium and thus to a lower signal. The assay is performed in microplates (384 wells per plate).
# LPA2R-Calciumflux Assay Protocol
# The assay is run according to the following procedure:
# 50 uL seed cells (10000 cells/well in DMEM buffer)
# • Incubate 24 h at 37° C., 10% CO2 • aspirate medium 50 uL add calcium dye 1×HBSS/HEPES buffer • incubate 1 h at 37° C. (“loading”) • equilibrate 10 min at RT 5 uL add compounds in HEPES buffer • shake 10 sec. at 1000 rpm • incubate 15 min at RT 20 uL add LPA (in the FLIPR Tetra) in Krebs-buffer/BSA & measurement
# The cells are seeded in DMEM buffer (DMEM, 10% FCS, 10 mM HEPES, 1% Pen/Strep).
# Dye loading is done in HBSS/HEPES buffer (100 mL 10×HBSS+20 mL 1M HEPES+880 mL water, pH 7.4)
# The LPA is added in Krebs/BSA buffer (120 mM NaCl, 5 mM KCl, 0.62 mM MgSO4, 1.8 mM CaCl2, 10 mM HEPES, 6 mM D(+)-Glucose, 0.2% BSA, pH 7.4).
# The compounds are pre-diluted in HEPES buffer (20 mM, pH 7.4), whereby the final DMSO content in the assay is kept at 1%. The compounds are pre-diluted in order to generate dose response series on the microplates. The dose response series consist of 10 concentrations for each compound from 30 uM final to 1 nM final. From all compound wells the resulting signals are referred to control wells (located on each plate besides the compound wells) in terms of % activity.
# From these % activity values—along with the corresponding compound concentrations—IC50 values are fitted for each compound using standard fitting programs such as Graphpad Prism. Here the method “log(inhibitor) vs. response—Variable slope” is used.
# T1 sequence (Q9HBW0 whole entry): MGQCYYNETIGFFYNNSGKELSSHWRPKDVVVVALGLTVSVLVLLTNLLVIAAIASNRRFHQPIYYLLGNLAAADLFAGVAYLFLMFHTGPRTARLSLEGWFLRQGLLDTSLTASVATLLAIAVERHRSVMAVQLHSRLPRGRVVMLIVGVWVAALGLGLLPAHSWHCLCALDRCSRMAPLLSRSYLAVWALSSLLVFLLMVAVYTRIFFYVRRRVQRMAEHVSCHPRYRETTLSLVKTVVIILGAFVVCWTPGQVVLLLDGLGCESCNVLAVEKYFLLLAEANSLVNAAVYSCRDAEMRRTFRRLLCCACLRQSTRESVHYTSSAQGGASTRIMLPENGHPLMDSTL
row,SMILES,IC50 [nM]
1,"O=C(Nc1nc2cc(Cl)c(Cl)cc2[nH]1)C1CC1c1ccccc1 (racemic) [2-Phenyl-cyclopropane-carboxylic acid (5,6-dichloro-1H-benzoimidazol-2-yl)-amide]",100 to 1000
2,"N#Cc1ccc2nc(NC(=O)C3CC3c3ccccc3)[nH]c2c1 (single isomer, unassigned; enantiomer-2) [drawing 72, enantiomer-2-Phenyl-cyclopropane-carboxylic acid (6-cyano-1H-benzoimidazol-2-yl)-amide]",1000 to 10000
3,O=C(Nc1nc2cc(C(F)(F)F)ccc2[nH]1)C1CC1c1ccccc1 (racemic) [2-Phenyl-cyclopropane-carboxylic acid (6-trifluoromethyl-1H-benzoimidazol-2-yl)-amide],10 to 100
4,"O=C(Nc1nc2cc(Cl)cnc2[nH]1)[C@@H]1C[C@H]1c1ccccc1 (single isomer, unassigned) [trans-2-Phenyl-cyclopropane-carboxylic acid (6-chloro-3H-imidazo[4,5-b]pyridin-2-yl)-amide]",1000 to 10000
5,O=C(Nc1nc2ccccc2[nH]1)C1CC1c1ccc(C(F)(F)F)cc1 (racemic) [2-(4-Trifluoromethyl-phenyl)-cyclopropane-carboxylic acid (1H-benzoimidazol-2-yl)-amide],1000 to 10000
6,O=C(Nc1nc2cncnc2[nH]1)C1CC1c1ccccc1 (racemic) [2-Phenyl-cyclopropane-carboxylic acid (9H-purin-8-yl)-amide],1000 to 10000
7,N#Cc1ccc2nc(NC(=O)C3CC3c3ccccc3)[nH]c2c1 (racemic) [2-Phenyl-cyclopropane-carboxylic acid (5-cyano-1H-benzoimidazol-2-yl)-amide],10 to 100
8,CN(C(=O)C1CC1c1ccccc1)c1nc2ccccc2[nH]1 (racemic) [2-Phenyl-cyclopropane-carboxylic acid (1H-benzoimidazol-2-yl)-methyl-amide],1000 to 10000
9,NCc1ccc2[nH]c(NC(=O)C3CC3c3ccccc3)nc2c1 (racemic) [2-Phenyl-cyclopropane-carboxylic acid (5-aminomethyl-1H-benzoimidazol-2-yl)-amide],1000 to 10000
10,CC(C)(C)c1ccc(C2CC2C(=O)Nc2nc3ccccc3[nH]2)cc1 (racemic) [2-(4-tert-Butyl-phenyl)-cyclopropane-carboxylic acid (1H-benzoimidazol-2-yl)-amide],> 10000
11,"CC1(C)C(C(=O)Nc2nc3ccc(C#N)cc3[nH]2)C1c1ccccc1 (racemic) [2,2-Dimethyl-3-phenyl-cyclopropane-carboxylic acid (6-cyano-1H-benzoimidazol-2-yl)-amide]",> 10000
12,CN(C)c1ccc(C2CC2C(=O)Nc2nc3ccccc3[nH]2)cc1 (racemic) [2-(4-Dimethylamino-phenyl)-cyclopropane-carboxylic acid (1H-benzoimidazol-2-yl)-amide],1000 to 10000
13,"O=C(Nc1nc2cc(Cl)cnc2[nH]1)C1CC1c1cccc(F)c1 (racemic) [2-(3-Fluoro-phenyl)-cyclopropane-carboxylic acid (6-chloro-3H-imidazo[4,5-b]pyridin-2-yl)-amide]",< 10
14,COc1ccc(C2CC2C(=O)Nc2nc3ccccc3[nH]2)cc1 (racemic) [2-(4-Methoxy-phenyl)-cyclopropane-carboxylic acid (1H-benzoimidazol-2-yl)-amide],1000 to 10000
15,"O=C(Nc1nc2cc(Br)cnc2[nH]1)[C@H]1C[C@@H]1c1ccccc1 [(1S,2S)-2-Phenyl-cyclopropanecarboxylic acid (6-bromo-3H-imidazo[4,5-b]pyridin-2-yl)-amide]",10 to 100
16,O=C(Nc1nc2ccccc2[nH]1)C1CC1c1cc(Br)ccc1F (racemic) [2-(5-Bromo-2-fluoro-phenyl)-cyclopropane-carboxylic acid (1H-benzoimidazol-2-yl)-amide],10 to 100
17,O=C(Nc1nc2ccc(C(F)(F)F)cc2[nH]1)C1CC1c1ccccc1Cl (racemic) [2-(2-Chloro-phenyl)-cyclopropane-carboxylic acid (6-trifluoromethyl-1H-benzoimidazol-2-yl)-amide],10 to 100
18,N#Cc1ccc2nc(NC(=O)C3CC3c3ccccc3Cl)[nH]c2c1 (racemic) [2-(2-Chloro-phenyl)-cyclopropane-carboxylic acid (6-cyano-1H-benzoimidazol-2-yl)-amide],10 to 100
19,O=C(Nc1nc2c(NCC3CCN(Cc4ccccc4)CC3)cccc2[nH]1)C1CC1c1ccccc1 (racemic) [2-Phenyl-cyclopropane-carboxylic acid {4-[(1-benzyl-piperidin-4-ylmethyl)-amino]-1H-benzoimidazol-2-yl}-amide],1000 to 10000
20,"O=C(Nc1nc2ccnc(Cl)c2[nH]1)C1CC1c1ccccc1 (racemic) [2-Phenyl-cyclopropane-carboxylic acid (4-chloro-3H-imidazo[4,5-c]pyridin-2-yl)-amide]",10 to 100
21,"O=C(Nc1nc2cc(Cl)cnc2[nH]1)C1CC1c1ccccc1 (single isomer, unassigned; enantiomer-2) [enantiomer-2-Phenyl-cyclopropane-carboxylic acid (6-chloro-3H-imidazo[4,5-b]pyridin-2-yl)-amide]",< 10
22,"N#Cc1ccc2nc(NC(=O)C3C(c4ccccc4)C3(F)F)[nH]c2c1 (racemic) [2,2-Difluoro-3-phenyl-cyclopropane-carboxylic acid (6-cyano-1H-benzoimidazol-2-yl)-amide]",100 to 1000
23,O=C(OCc1ccccc1)C1CCN(CNc2cccc3[nH]c(NC(=O)C4CC4c4ccccc4)nc23)C1 (racemic) [1-({2-[(2-Phenyl-cyclopropane-carbonyl)-amino]-1H-benzoimidazol-4-ylamino)-methyl)-pyrrolidine-3-carboxylic acid benzyl ester],1000 to 10000
24,"O=C(Nc1nc2ccccc2[nH]1)C1CC1c1c(Cl)cccc1Cl (racemic) [2-(2,6-Dichloro-phenyl)-cyclopropane-carboxylic acid (1H-benzoimidazol-2-yl)-amide]",> 10000

# Now from value to molecule:
row,IC50 [nM],SMILES
1,1000 to 10000,Cc1ccc(C2CC2C(=O)Nc2nc3ccccc3[nH]2)cc1 (racemic) [2-p-Tolyl-cyclopropane-carboxylic acid (1H-benzoimidazol-2-yl)-amide]
2,10 to 100,O=C(Nc1nc2cc(Cl)ccc2[nH]1)C1CC1c1ccccc1 (racemic) [2-Phenyl-cyclopropane-carboxylic acid (6-chloro-1H-benzoimidazol-2-yl)-amide]
3,10 to 100,Nc1cccc2[nH]c(NC(=O)C3CC3c3ccccc3)nc12 (racemic) [2-Phenyl-cyclopropane-carboxylic acid (4-amino-1H-benzoimidazol-2-yl)-amide]
4,100 to 1000,O=C(Nc1nc2ccccc2[nH]1)C1CC1c1cccc(Cl)c1 (racemic) [2-(3-Chloro-phenyl)-cyclopropane-carboxylic acid (1H-benzoimidazol-2-yl)-amide]
5,10 to 100,O=C(Nc1nc2ccccc2[nH]1)C1CC1c1cccc(Br)c1 (racemic) [2-(3-Bromo-phenyl)-cyclopropane-carboxylic acid (1H-benzoimidazol-2-yl)-amide]
6,> 10000,"O=C(Nc1nc2ccccc2[nH]1)C1CC1c1ccccc1Cl (single isomer, unassigned; enantiomer-2) [drawing 76, enantiomer-2-(2-Chloro-phenyl)-cyclopropane-carboxylic acid (1H-benzoimidazol-2-yl)-amide]"
7,10 to 100,O=C(Nc1nc2ccccc2[nH]1)C1CC1c1ccc(F)cc1 (racemic) [2-(4-Fluoro-phenyl)-cyclopropane-carboxylic acid (1H-benzoimidazol-2-yl)-amide]
8,1000 to 10000,"O=C(Nc1nc2ccccc2[nH]1)C1CC1c1ccccc1 (single isomer, unassigned; enantiomer-2) [drawing 58, enantiomer-2-Phenyl-cyclopropane-carboxylic acid (1H-benzoimidazol-2-yl)-amide]"
9,10 to 100,O=C(Nc1nc2ccccc2[nH]1)C1CC1c1ccccc1 (racemic) [2-Phenyl-cyclopropane-carboxylic acid (1H-benzoimidazol-2-yl)-amide]
10,100 to 1000,N#Cc1cccc(C2CC2C(=O)Nc2nc3ccccc3[nH]2)c1 (racemic) [2-(3-Cyano-phenyl)-cyclopropane-carboxylic acid (1H-benzoimidazol-2-yl)-amide]
11,100 to 1000,Cc1ccc2nc(NC(=O)C3CC3c3ccccc3)[nH]c2c1 (racemic) [2-Phenyl-cyclopropane-carboxylic acid (6-methyl-1H-benzoimidazol-2-yl)-amide]
